Test results: patent US6281214A, “Biphenyl derivatives” (Eisai Co., Ltd, priority 1994, dated 2001)
Like-named read-outs stand apart in the source and are kept apart here.

Key:
Parameters in all cases: species or system SD rats
serotonin S2 receptor = biological target: T1, serotonin S2 receptor (Rattus norvegicus, UniProt P14842); assay: serotonin S2 receptor binding test ([3H] Ketanserin Binding Test); settings: 1 nM [3H] Ketanserin, rat cortex, 37° C., 15 minutes
T1 construct: The receptor fraction prepared from the cortex was molten and suspended; from tissue; host or cells: cerebral cortex of SD rats (membrane fraction)
Experimental: (§1) The compounds of the present invention were subjected to each of serotonin S2 receptor binding test, dopamine D2 receptor binding test and adrenergic α1 receptor binding test.
(§2) The following reagents were used in this test.
(§3) These reagents and samples were each dissolved in 10% ethanol before use. Among them, water-insoluble compounds were each dissolved in ethanol and the obtained solution was diluted with distilled water to an ethanol concentration of 10%. Further, Methylsergide maleate was used in a state dissolved in distilled water.
(§4) SD rats aged 6 to 8 weeks were used.
(§5) SD rats were each slaughtered with a guillotine to extirpate its cerebrum. The cortex and corpus striatum were separated from the cerebrum. The former was used in serotonin S2 receptor binding test and adrenergic α1, receptor binding test, while the latter was used in dopamine D2 receptor binding test.
(§6) The cortex was homogenized in a 0.32 M sucrose solution in an amount ten times the wet weight of the cortex by the use of a teflon glass homogenizer and the resulting mixture was centrifuged at 10,000×G for 20 minutes. The obtained sediment was suspended in 50 mM Tris hydrochloride (pH 7.4) in an amount ten times the initial wet weight of the cortex by the use of a histocothrom, and the obtained suspension was centrifuged at 10,000×G for 20 minutes. This operation was repeated twice. The obtained sediment was suspended in 50 mM Tris hydrochloride (pH 7.4) in an amount 20 times the initial wet weight of the cortex by the use of a histocothrom. The suspension thus prepared was used as a receptor fraction. This receptor fraction was stored at -80° C. until use.
4. [^3 ] Ketanserin Binding Test
The receptor fraction prepared from the cortex was molten and suspended by the use of a histocothrom. The resulting suspension was incubated together with 1 nM-[^3 H] Ketanserin at 37° C. for 15 minutes. The resulting reaction system was filtered through a Whatman GF/B glass filter with an MR-30R type cell harvester mfd. by Blandel. The resulting filter was washed twice with 5 ml of 50 mM Tris hydrochloride (ph 7.4) cooled with ice and the radioactivity of the Ketanserin bound the receptor was determined by the use of a liquid scintillation counter with 5 ml of ACS II. The binding detected in the presence of […] of Methylsergide was regarded as nonspecific binding.
(§7) Each IC50 value was calculated by the probit method and each Ki value was determined by the following formula: [formula]
(§8) In the above formula, C represents the concentration of radioligand, and Kd represents the affinity of radioligand for the receptor as determined by the Scatchard analysis.

dopamine D2 receptor = biological target: T2, dopamine D2 receptor (Rattus norvegicus, UniProt P61169); assay: dopamine D2 receptor binding test ([3H] Spiperone Binding Test); settings: 1 nM [3H] Spiperone, rat corpus striatum, room temperature, 60 minutes
T2 construct: the receptor fraction prepared from the corpus striatum was molten and suspended; from tissue; host or cells: corpus striatum of SD rats (membrane fraction)
Experimental: as §1, §2, §3, §4, §5
On the other hand, the corpus striatum was homogenized in a 0.32 M sucrose solution in an amount ten times the wet weight of the corpus striatum by the use of a teflon glass homogenizer and the obtained mixture was centrifuged at 1,000×G for 20 minutes. The obtained supernatant was centrifuged at 10,000×G for 20 minutes. The obtained sediments were suspended together in 50 mM Tris hydrochloride (pH 7.4) in an amount ten times the initial wet weight of the corpus striatum by the use of a histocothrom, and the obtained suspension was centrifuged at 10,000×G for 20 minutes. This operation was repeated thrice. The resulting sediment was suspended in 50 mM Krebs-Tris (pH 7.4) in an amount 100 times the initial wet weight of the corpus striatum by the use of a histocothrom. The obtained suspension was used as a receptor fraction. This receptor fraction was stored at -80° C. until use.
as §7, §8
5. [^3 H] Spiperone Binding Test
(§9) This test was conducted in the same manner as that of the binding test of [^3 H] Ketanserin except that the receptor fraction prepared from the corpus striatum was molten and suspended with a histocothrom, and the obtained suspension was incubated together with 1 nM-[^3 H], Spiperone at room temperature for 60 minutes and that the binding detected in the presence of 10 μl of Spiperone was regarded as nonspecific binding.

adrenergic α1 receptor = adrenergic α1 receptor binding test ([3H] Prazosin Binding Test); settings: 1 nM [3H] Prazosin, rat cortex, room temperature, 60 minutes
Experimental: as §1, §2, §3, §4, §5, §6, §7, §8
6. [^3 H] Prazosin Binding Test
as §9, with “cortex” for “corpus striatum”, “H] Prazosin” for “H], Spiperone”, “Phentolamine” for “Spiperone”

[1] = read-out: Ki value, dopamine D2 receptor

T1 sequence (P14842 whole entry): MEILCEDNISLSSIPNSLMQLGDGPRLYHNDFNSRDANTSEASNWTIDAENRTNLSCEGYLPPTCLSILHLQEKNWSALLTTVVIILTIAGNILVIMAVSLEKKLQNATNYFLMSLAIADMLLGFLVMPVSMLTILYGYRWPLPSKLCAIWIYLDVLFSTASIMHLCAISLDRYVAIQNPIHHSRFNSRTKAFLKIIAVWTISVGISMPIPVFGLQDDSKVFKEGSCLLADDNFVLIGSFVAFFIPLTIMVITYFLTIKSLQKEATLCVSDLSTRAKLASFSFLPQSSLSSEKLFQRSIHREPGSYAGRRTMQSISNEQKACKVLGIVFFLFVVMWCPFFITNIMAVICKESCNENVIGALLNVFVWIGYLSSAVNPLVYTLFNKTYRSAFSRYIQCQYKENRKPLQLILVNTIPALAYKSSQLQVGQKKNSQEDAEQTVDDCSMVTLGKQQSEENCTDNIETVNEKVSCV
T2 sequence (P61169 whole entry): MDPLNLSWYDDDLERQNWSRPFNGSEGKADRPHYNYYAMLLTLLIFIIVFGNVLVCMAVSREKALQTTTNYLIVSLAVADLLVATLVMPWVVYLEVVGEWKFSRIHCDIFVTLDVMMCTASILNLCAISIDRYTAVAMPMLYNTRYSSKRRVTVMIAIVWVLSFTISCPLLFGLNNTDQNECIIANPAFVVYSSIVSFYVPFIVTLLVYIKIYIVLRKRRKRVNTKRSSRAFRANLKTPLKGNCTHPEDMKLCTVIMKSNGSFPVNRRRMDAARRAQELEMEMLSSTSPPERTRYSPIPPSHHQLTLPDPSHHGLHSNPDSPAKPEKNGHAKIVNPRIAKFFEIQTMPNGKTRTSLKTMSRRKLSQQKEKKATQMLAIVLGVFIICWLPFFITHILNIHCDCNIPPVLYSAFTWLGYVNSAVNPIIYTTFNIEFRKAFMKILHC

SMILES	Ki (serotonin S2 receptor) [nM]	Ki (dopamine D2 receptor; [1]) [nM]	Ki (adrenergic α1 receptor) [nM]	Ki (dopamine D2 receptor; Ki value, dopamine D2 receptor) [nM]
O=C(Cc1ccccc1)c1cc(N2CCNCC2)cc(-c2ccccc2)c1O [Example 118, 1-(3-Phenyl-4-hyroxy-5-phenylaectyl)phenylpiperazine]	468	149	> 1000	
CCC(F)c1cc(N2CCN(CC)CC2)cc(-c2ccccc2CF)c1Cl (stereo not drawn) [Example 208, 1-Ethyl-4-[3-(2-fluoromethylphenyl)-4-chloro-5-(1-fluoropropyl)]phenylpiperazine]	16.1	3.46	2380	
CCN1CCN(c2cc(-c3ccccc3)c(OC)c(C(C)CO)c2)CC1 (stereo not drawn) [Example 87]	283	135	> 1000	
CCN1CCN(c2cc(CCO)c(OC)c(-c3ccccc3)c2)CC1 [Example 66, 1-Ethyl-4-[3-phenyl-4-methoxy-5-(2-hydroxyethyl)]phenylpiperazine]	65.9	18.3	127	
CCN1CCN(c2cc(C(Cc3ccc(F)cc3)=NO)c(OC)c(-c3ccccc3)c2)CC1 [Example 98, 1-Ethyl-4-{3-phenyl-4-methoxy-5-[4-fluoro-(1-hydroxyimino)phentheyl]}phenylpiperazine]	19.3	64.5	> 1000	
CC(C)S(=O)(=O)Nc1cc(N2CCN(C)CC2)cc(-c2ccccc2Cl)c1Cl [Example 182, 1-Methyl-4-(3-(2-chlorophenyl)-4-chloro-5-isopropylsulfonylamino]phenylpiperazine]	145	2.34	186	
CCC(F)c1cc(N2CCN(CC)CC2)cc(-c2ccc(F)cc2Cl)c1Cl (stereo not drawn) [Example 156]	29	1.39	513	
C=CCCC(F)c1cc(N2CCN(CC)CC2)cc(-c2ccccc2)c1OC (stereo not drawn) [Example 46, 1-Ethyl-4-{3-phenyl-4-methoxy-5-[1-fluoro-(4-pentenyl)]}phenylpiperazine]	2.16	9.78	> 1000	
CCN1CCN(c2cc(-c3ccccc3)c(OC)c(S(=O)(=O)CCF)c2)CC1 [Example 172, 1-Ethyl-4-[3-phenyl-4-methoxy-5-(2-fluoroethane)sulfonyl]phenylpiperazine]	30.3	48.9	> 1000	
CCN1CCN(c2cc(COCc3ccncc3)c(Cl)c(-c3ccccc3C)c2)CC1 [Example 169, 1-Ethyl-4-[3-(2-tolyl)-4-chloro-5-(4-pyridyl)methoxymethyl]phenylpiperazine]	108	41.8	> 1000	
CCCCS(=O)(=O)Nc1cc(N2CCN(CC)CC2)cc(-c2ccccc2Cl)c1Cl [Example 33, 1-Ethyl-4-[3-(2-chlorophenyl)-4-chloro-5-butanesulfonylamino]phenylpiperazine]	6.46	2.02	86.9	
CCN1CCN(c2cc(CC(C)O)c(OC)c(-c3ccccc3)c2)CC1 (stereo not drawn) [Example 75, 1-Ethyl-4-[3-phenyl-4-methoxy-5-(2-hydroxypropyl)]phenylpiperazine]	486	> 1000	> 1000	
CCN1CCN(c2cc(CCCO)cc(-c3ccccc3)c2OC)CC1 [Example 63, 1-Ethyl-4-[2-methoxy-3-phenyl-5-(3-hydroxypropyl)]phenylpiperazine]	703	> 1000	> 1000	
CCN1CCN(c2cc(CCCC#N)c(OC)c(-c3ccccc3)c2)CC1 [Example 71, 1-Ethyl-4-[3-phenyl-4-methoxy-5-(3-cyanopropyl)]phenylpiperazine]	90.9	14.7	131	
COc1c(C(=O)Cc2ccccc2)cc(N2CCN(CCO)CC2)cc1-c1ccccc1 [Example 128, 1-(2-Hydroxyethyl)-4-(3-phenyl-4-methoxy-5-phenylacetyl)phenylpiperazine]	1.16	46.1	> 1000	
CCC(F)c1cc(N2CCN(C)CC2)cc(-c2ccccc2C#N)c1Cl (stereo not drawn) [Example 20, 1-Methyl-4-[3-(2-cyanophenyl)-4-chloro-5-(1-fluoropropyl)]phenylpiperazine]	6.11	2.82	314	
CCN1CCN(c2cc(-c3ccc(F)cc3)c(OC)cc2C(C)C)CC1 [Example 79]	192	28.5	69.8	
CCN1CCN(c2cc(NS(=O)(=O)c3ccc(F)cc3)c(Cl)c(-c3ccccc3C)c2)CC1 [Example 137, 1-Ethyl-4-[3-(2-tolyl)-4-chloro-5-(4-fluorophenylsulfonylamino)]phenylpiperazine]	144	0.64	312	
CCS(=O)(=O)c1cc(N2CCN(CCc3ccccn3)CC2)cc(-c2ccc(F)cc2)c1OC [Example 198, 1-[2-(2-Pyridyl)ethyl]-4-[3-(4-fluorophenyl)-4-methoxy-5-ethanesulfonyl]phenylpiperazine]	1.06	12.1	62.7	
CCC(O)c1cc(N2CCN(CC)CC2)cc(-c2ccccc2)c1OC (stereo not drawn) [Example 83, 1-Ethyl-4-[3-phenyl-4methoxy-5-(1-hydroxypropyl)]phenylpiperazine]	84.5	485	> 1000	
CCCc1cc(N2CCN(CC)CC2)cc(-c2ccc(C(F)(F)F)cc2)c1OC [Example 85, 1-Ethyl-4-[3-(4-trifluoromethylphenyl)-4-methoxy-5-propyl]phenylpiperazine]	> 1000	> 1000	> 1000	
CCN1CCN(c2cc(CCO)cc(-c3ccccc3)c2OC)CC1 [Example 67, 1-Ethyl-4-[2-methoxy-3-phenyl-5-(2-hydroxyethyl)]phenylpiperazine]	> 1000	> 1000	687	
CCC(=O)c1cc(-c2ccccc2)cc(N2CCN(CC)CC2)c1 [Example 130, 1-Ethyl-4-(3-phenyl-5-propionyl)phenylpiperazine]	58		70.4	29.7
CCN1CCN(c2cc(-c3ccccc3)c(OC)c(C3CCCO3)c2)CC1 (stereo not drawn) [Example 95, 1-Ethyl-4-[3-phenyl-4-methoxy-5-(2-tetrahydrofuranyl)]phenylpiperazine]	40.9	104	279	
CCCC(F)c1cc(N2CCN(CC)CC2)cc(-c2ccccc2C)c1F (stereo not drawn) [Example 50, 1-Ethyl-4-[3-(2-tolyl)-4-fluoro-5-(1-fluorobutyl)]phenylpiperazine]	17.7	9.14	> 1000	
CCN1CCN(c2cc(-c3ccc(F)cc3C)c(Cl)c(S(=O)(=O)CC3CC3)c2)CC1 [Example 148, 1-Ethyl-4-{3-[2(4-fluorotolyl)]-4-chloro-5-cyclopropylmethylsulfonyl}phenylpiperazine]	22.4	12.1	278	
CCN1CCN(c2cc(-c3ccccc3C)c(Cl)c(C(F)F)c2)CC1 [Example 185, 1-Ethyl-4-[3-(2-tolyl)-4-chloro-5-difluoromethyl]phenylpiperazine]	> 100	0.58	> 1000	
